Measured values from PubChem BioAssay AID1918991 (Molecular Pharmacology Branch, DTP, NCI, 2023).

System: 186277-243-T-J2-PDC complex spheroid growth
Experiment: Anticancer human tumor 186277-243-T-J2-PDC patient-derived colon adenocarcinoma cell line growth inhibition [AhR]
Conditions: for IC50: curve of first compound; for viability, T/C: stronger effect = lower value
Procedure, shortened: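 Agents were dosed in half-log steps down from roughly clinical Cmax, or from 10 microM where Cmax was unknown, alone and with AhR antagonists. Read-out: percent test/control growth of tumor spheroids containing HUVEC and MSC stromal cells.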
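Also: spheroids exposed to compounds for seven days before the viability read.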
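For viability, T/C in this document: luminescent signal used as a stand-in for viable cell amount; 100% = DMSO vehicle control wells.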

With `CC(C)c1c(-c2ccccc2)nc2c(C#N)c[nH]n2c1=O` + Cc1cncc(-c2nc(NCCc3c[nH]c4ccccc34)c3ncn(C(C)C)c3n2)c1 the IC50 (second compound 0.1 µM) was over 10 µM, the IC50 (second compound 0.316 µM) was over 10 µM and the IC50 (second compound 1 µM) was over 10 µM. For the same molecule, the IC50 (second compound 3.16 µM) was over 10 µM, the IC50 (second compound 10 µM) was under 0.0316 µM and the viability, T/C (second compound 0.1 µM, first compound 0.0316 µM) was 127%. The viability, T/C (second compound 0.1 µM, first compound 0.1 µM) was 105%, the viability, T/C (second compound 0.1 µM, first compound 0.316 µM) was 101% and the viability, T/C (second compound 0.1 µM, first compound 1 µM) was 98.3%. It also gave a viability, T/C (second compound 0.1 µM, first compound 3.16 µM) of 95.8%, a viability, T/C (second compound 0.1 µM, first compound 10 µM) of 96.5% and a viability, T/C (second compound 0.316 µM, first compound 0.0316 µM) of 102%. For the same molecule, the viability, T/C (second compound 0.316 µM, first compound 0.1 µM) was 99.6%, the viability, T/C (second compound 0.316 µM, first compound 0.316 µM) was 101% and the viability, T/C (second compound 0.316 µM, first compound 1 µM) was 98.8%. For the same molecule, the viability, T/C (second compound 0.316 µM, first compound 3.16 µM) was 95%, the viability, T/C (second compound 0.316 µM, first compound 10 µM) was 108% and the viability, T/C (second compound 1 µM, first compound 0.0316 µM) was 107%. It also gave a viability, T/C (second compound 1 µM, first compound 0.1 µM) of 101%, a viability, T/C (second compound 1 µM, first compound 0.316 µM) of 98.5% and a viability, T/C (second compound 1 µM, first compound 1 µM) of 103%. For the same molecule, the viability, T/C (second compound 1 µM, first compound 3.16 µM) was 94.4%, the viability, T/C (second compound 1 µM, first compound 10 µM) was 102% and the viability, T/C (second compound 3.16 µM, first compound 0.0316 µM) was 109%. It also gave a viability, T/C (second compound 3.16 µM, first compound 0.1 µM) of 111%, a viability, T/C (second compound 3.16 µM, first compound 0.316 µM) of 96.3% and a viability, T/C (second compound 3.16 µM, first compound 1 µM) of 96.1%. The viability, T/C (second compound 3.16 µM, first compound 3.16 µM) was 108%, the viability, T/C (second compound 3.16 µM, first compound 10 µM) was 102% and the viability, T/C (second compound 10 µM, first compound 0.0316 µM) was 26%. It also gave a viability, T/C (second compound 10 µM, first compound 0.1 µM) of 22.7%, a viability, T/C (second compound 10 µM, first compound 0.316 µM) of 20.5% and a viability, T/C (second compound 10 µM, first compound 1 µM) of 25.6%. For the same molecule, the viability, T/C (second compound 10 µM, first compound 3.16 µM) was 23.9% and the viability, T/C (second compound 10 µM, first compound 10 µM) was 34.4%.
